# In patent US11369565B2, “Amino-pyrimidine skeletal muscle modulators” (Cytokinetics, Inc., priority 2010, dated 2022):
# System: rabbit skeletal myofibrils (approximately 90% fast fibers)
# Test: Activation of fast skeletal myofibrils (PUMA coupled-enzyme ATPase assay at pCa25)
# Assay type: biochemical
# Settings: concentration at which the compound increased the enzymatic activity by 40%; calcium at pCa25; PM12 buffer pH 6.8
# Procedure, shortened: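 In pH 6.8 PM12 buffer (12 mM Pipes, 2 mM MgCl2, 1 mM DTT), ADP from myosin regenerated via pyruvate kinase/lactate dehydrogenase, with absorbance change at 340 nm from NADH oxidation as read-out. Calcium set at pCa25; Triton-washed rabbit skeletal myofibrils (about 90% fast fibres) used.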
row,SMILES,Mean AC1.4
1,CC(C)(CNc1ncc(-c2cccc(C(N)=O)c2)cn1)c1ncccc1Cl [3-(2-{[2-(3-chloro(2-pyridyl))-2-methylpropyl]amino}pyrimidin-5-yl)benzamide],A (A=<1 uM)
2,"NCc1cnc(-c2cnc(NCC3(c4ncccc4F)CCC3)nc2)s1 [{5-[5-(aminomethyl)(1,3-thiazol-2-yl)]pyrimidin-2-yl}{[(3-fluoro(2-pyridyl))cyclobutyl]methyl}amine]",C (C=10-20 uM)
3,O=C1NCc2cccc(-c3cnc(NC[C@]4(c5ncccc5F)C[C@H](F)C4)nc3)c21 [7-[2-({[3-fluoro-1-(3-fluoro(2-pyridyl))cyclobutyl]methyl}amino)pyrimidin-5-yl]isoindolin-1-one],B (B=1-10 uM)
4,"CCOC(=O)c1noc(-c2cnc(NC(C)(C)c3ncccc3Cl)nc2)n1 [ethyl 5-(2-{[1-(3-chloro(2-pyridyl))-isopropyl]amino}pyrimidin-5-yl)-1,2,4-oxadiazole-3-carboxylate]",D (D=>20 uM)
5,CC(C)(Nc1ncc(-c2cnn(CC(N)=O)c2)cn1)c1ncccc1Cl [2-[4-(2-{[1-(3-chloro(2-pyridyl))-isopropyl]amino}pyrimidin-5-yl)pyrazolyl]acetamide],D (D=>20 uM)
6,O=C(NC1CC(O)C1)c1cccc(-c2cnc(NC[C@]3(c4ncccc4F)C[C@H](F)C3)nc2)c1 (some centres unmarked) [{3-[2-(([3-fluoro-1-(3-fluoro(2-pyridyl))cyclobutyl]methyl}amino)pyrimidin-5-yl]phenyl}-N-(3-hydroxycyclobutyl)carboxamide],B (B=1-10 uM)
7,O=C(Nc1ccncc1)c1cnc(NCC2(c3ncccc3F)CCC2)nc1 [[2-({[(3-fluoro(2-pyridyl))cyclobutyl]methyl}amino)pyrimidin-5-yl]-N-(4-pyridyl)carboxamide],B (B=1-10 uM)
8,CC(C)(Nc1ncc(-c2cc(C(N)=O)on2)cn1)c1ncccc1Cl [3-(2-{[1-(3-chloro(2-pyridyl))-isopropyl]amino}pyrimidin-5-yl)isoxazole-5-carboxamide],C (C=10-20 uM)
9,COc1ccc(Cl)c(C(C)(C)Nc2ncc(-c3cccc(C(N)=O)c3)cn2)n1 [3-(2-{[1-(3-chloro-6-methoxy(2-pyridyl))-isopropyl]amino}pyrimidin-5-yl)benzamide],A (A=<1 uM)
10,Cc1ccc(F)c([C@]2(CNc3ncc(-c4cccc(C(N)=O)c4)cn3)C[C@@H](F)C2)n1 [3-[2-({[3-fluoro-1-(3-fluoro-6-methyl(2-pyridyl))cyclobutyl]methyl}amino)pyrimidin-5-yl]benzamide],A (A=<1 uM)
11,N#Cc1ccnc(-c2cnc(NC[C@]3(c4ncccc4F)C[C@H](F)C3)nc2)n1 [2-[2-({[3-fluoro-1-(3-fluoro(2-pyridyl))cyclobutyl]methyl}amino)pyrimidin-5-yl]pyrimidine-4-carbonitrile],B (B=1-10 uM)
12,N#Cc1cccc(-c2cnc(NCC3(c4ncccc4Cl)CCC3)nc2)c1 [3-[2-({[(3-chloro-2-pyridyl)cyclobutyl]methyl}amino)pyrimidin-5-yl]benzenecarbonitrile],A (A=<1 uM)
13,CC(C)(CNc1ncc(C(=O)NC2(C(=O)O)CC2)cn1)c1ccc(F)cc1 [1-[(2-{[2-(4-fluorophenyl)-2-methylpropyl]amino}pyrimidin-5-yl)carbonylamino] cyclopropanecarboxylic acid],D (D=>20 uM)
14,"CC(C)(Nc1ncc(-c2nc(CC(N)=O)cs2)cn1)c1ncccc1F [2-[2-(2-{[1-(3-fluoro(2-pyridyl))-isopropyl]amino}pyrimidin-5-yl)-1,3-thiazol-4-yl]acetamide]",D (D=>20 uM)
15,COc1ccc(-c2cnc(NC[C@]3(c4ncccc4F)C[C@H](F)C3)nc2)nn1 [{[3-fluoro-1-(3-fluoro(2-pyridyl))cyclobutyl]methyl}[5-(6-methoxypyridazin-3-yl)]pyrimidin-2-yl]amine],D (D=>20 uM)
16,"CN1CCc2nc(NCC(C)(C)c3ccc(F)cc3)ncc2C1 [[2-(4-fluorophenyl)-2-methylpropyl](6-methyl (5,6,7,8-tetrahydropyridino [4,3-d]pyrimidin-2-yl))amine]",D (D=>20 uM)
17,CC(C)(C)NC(=O)c1cc(-c2cnc(NC(C)(C)c3ncccc3Cl)nc2)cnn1 [N-(tert-butyl)[5-(2-{[1-(3-chloro(2-pyridyl))-isapropyl]amino}pyrimidin-5-yl)pyridazin-3-yl]carboxamide],D (D=>20 uM)
18,"O=C(Nc1nccs1)c1cnc(NCC2(c3ncccc3F)CCC2)nc1 [[2-({[(3-fluoro(2-pyridyl))cyclobutyl]methyl}amino)pyrimidin-5-yl]-N-(1,3-thiazol-2-yl)carboxamide]",B (B=1-10 uM)
19,NC(=O)c1cc(-c2cnc(NCC3(c4ncccc4F)CCC3)nc2)ccn1 [4-[2-({[(3-fluoro-2-pyridyl)cyclobutyl]methyl}amino)pyrimidin-5-yl]pyridine-2-carboxamide],B (B=1-10 uM)
20,CC(C)(Nc1ncc(-c2ccc(C(N)=O)s2)cn1)c1ncccc1Cl [5-(2-{[1-(3-chloro(2-pyridyl))-isopropyl]amino}pyrimidin-5-yl)thiophene-2-carboxamide],B (B=1-10 uM)
21,NC(=O)c1ccc(=O)n(-c2cnc(NC[C@]3(c4ncccc4F)C[C@H](F)C3)nc2)c1 [1-[2-({[3-fluoro-1-(3-fluoro(2-pyridyl))cyclobutyl]methyl)amino)pyrimidin-5-yl]-6-oxohydropyridine-3-carboxamide],D (D=>20 uM)
22,"NC(=O)c1cc2cnc(NCC3(c4ncccc4F)CCC3)nc2s1 [2-({[(3-fluoro-2-pyridyl)cyclobutyl]methyl}amino) thiopheno[2,3-d]pyrimidine-6-carboxamide]",C (C=10-20 uM)
23,NC(=O)c1ccc(F)c(-c2cnc(NCC3(c4ncccc4Cl)CCC3)nc2)c1 [3-[2-({[(3-chloro(2-pyridyl))cyclobutyl]methyl}amino)pyrimidin-5-yl]-4-fluorobenzamide],A (A=<1 uM)
24,"CC(C)(Nc1ncc(-c2cn3cccc(C(N)=O)c3n2)cn1)c1ncccc1Cl [2-(2-{[1-(3-chloro(2-pyridyl))-isopropyl]amino}pyrimidin-5-yl)-4-hydroimidazo[1,2-a]pyridine-8-carboxamide]",B (B=1-10 uM)
25,CC(C)(Nc1ncc(-c2cnn(CCO)c2)cn1)c1ncccc1Cl [2-[4-(2-{[1-(3-chloro(2-pyridyl))-isopropyl]amino}pyrimidin-5-yl)pyrazolyl]ethan-1-ol],D (D=>20 uM)
26,COC(=O)c1cnc(NCC(C)(C)c2ccc(F)cc2)nc1 [methyl 2-{[2-(4-fluorophenyl)-2-methylpropyl]amino}pyrimidine-5-carboxylate],D (D=>20 uM)

# Results, then the compound that gave them:
row,Mean AC1.4,SMILES
1,A (A=<1 uM),NC(=O)c1ccc(F)c(-c2cnc(N[C@]3(c4ncccc4Cl)C[C@H](F)C3)nc2)c1 [3-(2-{[1-(3-chloro(2-pyridyl))-3-fluorocyclobutyl]amino}pyrimidin-5-yl)-4-fluorobenzamide]
2,B (B=1-10 uM),CC(C)(Nc1ncc(-c2cc(C(N)=O)ccc2F)cn1)c1ncccc1C(F)F [3-[2-({1-[3-(difluoromethyl)(2-pyridyl)]-isopropyl)amino)pyrimidin-5-yl]-4-fluorobenzamide]
3,C (C=10-20 uM),"CC(C)(Nc1ncc(-c2ncc(CNC(=O)[C@@H]3CCCN3)s2)cn1)c1ncccc1F [((2S)pyrrolidin-2-yl)-N-{[2-(2-{[1-(3-fluoro(2-pyridyl))-isopropyl]amino}pyrimidin-5-yl)(1,3-thiazol-5-yl)]methyl}carboxamide]"
4,A (A=<1 uM),"CC(C)(Nc1ncc(-c2ncc(C(N)=O)s2)cn1)c1cccc(OC(F)F)n1 [2-[2-({1-[6-(difluoromethoxy)(2-pyridyl)]-isopropyl}amino)pyrimidin-5-yl]-1,3-thiazole-5-carboxamide]"
5,B (B=1-10 uM),"NC(=O)c1csc(-c2cnc(NCC3(c4ncccc4F)CCC3)nc2)n1 [2-[2-({[(3-fluoro-2-pyridyl)cyclobutyl]methyl}amino)pyrimidin-5-yl]-1,3-thiazole-4-carboxamide]"
6,D (D=>20 uM),NC(=O)c1cnc(NC2(c3ncccc3F)CCC2)nc1 [2-{[(3-fluoro-2-pyridyl)cyclobutyl]amino}pyrimidine-5-carboxamide]
7,D (D=>20 uM),COc1ccnc(NC[C@]2(c3ncccc3F)C[C@H](F)C2)n1 [{[3-fluoro-1-(3-fluoro(2-pyridyl))cyclobutyl]methyl}(4-methoxypyrimidin-2-yl)amine]
8,B (B=1-10 uM),CC(C)(Nc1ncc(-n2cc(CNC(=O)CCN)cn2)cn1)c1ncccc1Cl [3-amino-N-{[1-(2-{[1-(3-chloro(2-pyridyl))-isopropyl]amino}pyrimidin-5-yl)pyrazol-4-yl]methyl}propanamide]
9,B (B=1-10 uM),"NC(=O)Cc1cnc(-c2cnc(NC[C@]3(c4ncccc4Cl)C[C@H](F)C3)nc2)s1 [2-{2-[2-({[1-(3-chloro(2-pyridyl))-3-fluorocyclobutyl]methyl}amino)pyrimidin-5-yl]-1,3-thiazol-5-yl}acetamide]"
10,B (B=1-10 uM),CN1CC(NC(=O)c2ccc(F)c(-c3cnc(NC[C@]4(c5ncccc5F)C[C@H](F)C4)nc3)c2)C1 [{4-fluoro-3-[2-({[3-fluoro-1-(3-fluoro(2-pyridyl))cyclobutyl]methyl}amino)pyrimidin-5-yl]phenyl}-N-(1-methylazetidin-3-yl)carboxamide]
11,A (A=<1 uM),COc1nc(NC[C@]2(c3ncccc3F)C[C@H](F)C2)ncc1-c1cccc(C(N)=O)c1 [3-[2-({[3-fluoro-1-(3-fluoro(2-pyridyl))cyclobutyl]methyl}amino)-4-methoxypyrimidin-5-yl]benzamide]
12,A (A=<1 uM),"CC(=O)NCc1cnc(-c2cnc(NCC3(c4ncccc4Cl)CCC3)nc2)s1 [N-({2-[2-({[(3-chloro-2-pyridyl)cyclobutyl]methyl}amino)pyrimidin-5-yl]-1,3-thiazol-5-yl}methyl)acetamide]"
